In US10023558B2, “Compounds” (CHIESI FARMACEUTICI S.P.A., priority 2016, dated 2018) one finds IC50 data, which are given here for 19 compounds.

The test has as its target T1, human neutrophil elastase (HNE) (Homo sapiens, UniProt P08246).
T1 construct: purchased Sigma E8140
T1 sequence (P08246 30-247 limits assumed): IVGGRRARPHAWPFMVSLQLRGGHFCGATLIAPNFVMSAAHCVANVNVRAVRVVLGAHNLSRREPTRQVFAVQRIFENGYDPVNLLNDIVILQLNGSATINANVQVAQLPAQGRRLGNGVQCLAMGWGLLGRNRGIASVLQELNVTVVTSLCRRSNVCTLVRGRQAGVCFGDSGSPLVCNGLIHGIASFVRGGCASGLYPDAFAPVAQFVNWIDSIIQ
As to the kind of experiment: HNE Enzyme Assay (fluorogenic peptide substrate MeOSuc-Ala-Ala-Pro-Val-AMC). Type of test: biochemical. The following applies: human leukocyte elastase 0.00072 U/mL, substrate 100 μM, 25° C., 30 minutes, at least two separate experiments; read-out: HNE inhibition (IC50 values). On the procedure:
Compounds of this invention were tested for potency in a human neutrophil elastase (HNE) enzyme activity assay.
Assays were performed in 96-well plates in a total assay volume of 100 μL. The final concentration of elastase enzyme (human leukocyte elastase, Sigma E8140) was 0.00072 U/mL. The peptide substrate (MeOSuc-Ala-Ala-Pro-Val-AMC, Calbiochem #324740) was used at a final concentration of 100 μM. The final concentration of DMSO was 1% in the assay buffer (0.05M Tris.HCl, 0.1M NaCl, 0.1M CaCl2, 0.0005% Brij-35, pH 7.5). The enzymatic reaction was started by addition of the enzyme and incubated at 25° C. for 30 minutes. After incubation, the reaction was stopped by addition of soybean trypsin inhibitor (Sigma T9003) at a final concentration of 50 μg/well. Fluorescence was measured using a Molecular Devices fluorescence plate reader using 380 nm excitation and 460 nm emission wavelengths.
A concentration response to each compound was performed and the effect of compound in each experiment was expressed as a percentage inhibition of the control enzyme fluorescence. Dose response curves were plotted and compound potency (IC50) was determined. Compounds were tested in at least two separate experiments.
For orientation: IC50 means the concentration at which inhibition is half-maximal. On to `Cc1c(-c2ccnn2-c2ccc(C#N)cc2)n(C(=O)NC(C)c2nc(C[N+](C)(C)C)cs2)c(=O)n1-c1cccc(C(F)(F)F)c1` (racemic) [Example 85, ±[2-(1-{[5-[2-(4-Cyano-phenyl)-2H-pyrazol-3-yl]-4-methyl-2-oxo-3-(3-trifluoromethyl-phenyl)-2,3-dihydro-imidazole-1-carbonyl]-amino}-ethyl)-thiazol-4-ylmethyl]-trimethyl-ammonium benzene sulfonate], for which the IC50 is less than 1 nM.
For `Cc1c(-c2ccnn2-c2ccc(C#N)cc2)n(C(=O)N[C@H]2CC[C@H](CN(C)C)CC2)c(=O)n1-c1cccc(C(F)(F)F)c1` [Example 1, 5-[2-(4-Cyano-phenyl)-2H-pyrazol-3-yl]-4-methyl-2-oxo-3-(3-trifluoromethyl-phenyl)-2,3-dihydro-imidazole-1-carboxylic acid trans-(4-dimethylaminomethyl-cyclohexyl)-amide], the half-inhibitory concentration (IC50) is less than 1 nM.
To `Cc1c(-c2ccnn2-c2ccc(C#N)cc2)n(C(=O)N[C@H]2CCC[C@@H]2OCc2ccccc2)c(=O)n1-c1cccc(C(F)(F)F)c1` [Example 2, 5-[2-(4-Cyano-phenyl)-2H-pyrazol-3-yl]-4-methyl-2-oxo-3-(3-trifluoromethyl-phenyl)-2,3-dihydro-imidazole-1-carboxylic acid ((1S,2S)-2-benzyloxy-cyclopentyl)-amide] belongs 1 to 10 nM; to `Cc1c(-c2ccnn2-c2ccc(C#N)cc2)n(C(=O)NC2CCN(C(=O)OCc3ccccc3)CC2)c(=O)n1-c1cccc(C(F)(F)F)c1` [Example 3, 4-{[5-[2-(4-Cyano-phenyl)-2H-pyrazol-3-yl]-4-methyl-2-oxo-3-(3-trifluoromethyl-phenyl)-2,3-dihydro-imidazole-1-carbonyl]-amino}-piperidine-1-carboxylic acid benzyl ester], less than 1 nM; to `Cc1c(-c2ccnn2-c2ccc(C#N)cc2)n(C(=O)NC2CCN(C(=O)C(F)(F)F)CC2)c(=O)n1-c1cccc(C(F)(F)F)c1` [Example 4, 5-[2-(4-Cyano-phenyl)-2H-pyrazol-3-yl]-4-methyl-2-oxo-3-(3-trifluoromethyl-phenyl)-2,3-dihydro-imidazole-1-carboxylic acid [1-(2,2,2-trifluoro-acetyl)-piperidin-4-yl]-amide], less than 1 nM.
To `Cc1c(-c2ccnn2-c2ccc(C#N)cc2)n(C(=O)N[C@@H](C)c2ccncc2)c(=O)n1-c1cccc(C(F)(F)F)c1` [Example 5, 5-[2-(4-Cyano-phenyl)-2H-pyrazol-3-yl]-4-methyl-2-oxo-3-(3-trifluoromethyl-phenyl)-2,3-dihydro-imidazole-1-carboxylic acid ((S)-1-pyridin-4-yl-ethyl)-amide] belongs less than 1 nM; to `Cc1c(-c2ccnn2-c2ccc(C#N)cc2)n(C(=O)N[C@H](C)c2ccncc2)c(=O)n1-c1cccc(C(F)(F)F)c1` [Example 6, 5-[2-(4-Cyano-phenyl)-2H-pyrazol-3-yl]-4-methyl-2-oxo-3-(3-trifluoromethyl-phenyl)-2,3-dihydro-imidazole-1-carboxylic acid ((R)-1-pyridin-4-yl-ethyl)-amide], less than 1 nM; to `COc1ccc(CN2CC3C(C2)C3NC(=O)n2c(-c3ccnn3-c3ccc(C#N)cc3)c(C)n(-c3cccc(C(F)(F)F)c3)c2=O)cc1` (stereo not shown) [Example 7, 5-[2-(4-Cyano-phenyl)-2H-pyrazol-3-yl]-4-methyl-2-oxo-3-(3-trifluoromethyl-phenyl)-2,3-dihydro-imidazole-1-carboxylic acid [3-(4-methoxy-benzyl)-3-aza-bicyclo[3.1.0]hex-6-yl]-amide], less than 1 nM.
For `Cc1c(-c2ccnn2-c2ccc(C#N)cc2)n(C(=O)N[C@H]2CC[C@H](NC(=O)OC(C)(C)C)CC2)c(=O)n1-c1cccc(C(F)(F)F)c1` [Example 8, (Trans-4-{[5-[2-(4-cyano-phenyl)-2H-pyrazol-3-yl]-4-methyl-2-oxo-3-(3-trifluoromethyl-phenyl)-2,3-dihydro-imidazole-1-carbonyl]-amino}-cyclohexyl)-carbamic acid tert-butyl ester], the concentration for half-maximal inhibition (IC50) was less than 1 nM.
In the case of `Cc1c(-c2ccnn2-c2ccc(C#N)cc2)n(C(=O)N[C@H]2CC[C@H](N(C)C)CC2)c(=O)n1-c1cccc(C(F)(F)F)c1` [Example 9, 5-[2-(4-Cyano-phenyl)-2H-pyrazol-3-yl]-4-methyl-2-oxo-3-(3-trifluoromethyl-phenyl)-2,3-dihydro-imidazole-1-carboxylic acid (trans-4-dimethylamino-cyclohexyl)-amide], the IC50 is less than 1 nM.
`Cc1c(-c2ccnn2-c2ccc(C#N)cc2)n(C(=O)N[C@@H]2C[C@@H]3CN(C(=O)OC(C)(C)C)C[C@@H]3C2)c(=O)n1-c1cccc(C(F)(F)F)c1` [Example 10, (3aS,5R,6aR)-5-{[5-[2-(4-Cyano-phenyl)-2H-pyrazol-3-yl]-4-methyl-2-oxo-3-(3-trifluoromethyl-phenyl)-2,3-dihydro-imidazole-1-carbonyl]-amino}-hexahydro-cyclopenta[c]pyrrole-2-carboxylic acid tert-butyl ester]: the IC50 is less than 1 nM.
In the case of `Cc1c(-c2ccnn2-c2ccc(C#N)cc2)n(C(=O)N[C@@H](C)C(=O)N2CCN(C)CC2)c(=O)n1-c1cccc(C(F)(F)F)c1` [Example 11, 5-[2-(4-Cyano-phenyl)-2H-pyrazol-3-yl]-4-methyl-2-oxo-3-(3-trifluoromethyl-phenyl)-2,3-dihydro-imidazole-1-carboxylic acid [(S)-1-methyl-2-(4-methyl-piperazin-1-yl)-2-oxo-ethyl]-amide], the IC50 was less than 1 nM.
Regarding `Cc1c(-c2ccnn2-c2ccc(C#N)cc2)n(C(=O)N[C@H]2C[C@@H]3CN(C(=O)OC(C)(C)C)C[C@@H]3C2)c(=O)n1-c1cccc(C(F)(F)F)c1` [Example 12, (3aR,5S,6aS)-5-{[5-[2-(4-Cyano-phenyl)-2H-pyrazol-3-yl]-4-methyl-2-oxo-3-(3-trifluoromethyl-phenyl)-2,3-dihydro-imidazole-1-carbonyl]-amino}-hexahydro-cyclopenta[c]pyrrole-2-carboxylic acid tert-butyl ester], the IC50 is less than 1 nM.
To `Cc1c(-c2ccnn2-c2ccc(C#N)cc2)n(C(=O)N[C@@H](C)C(=O)NC2CCN(C)CC2)c(=O)n1-c1cccc(C(F)(F)F)c1` [Example 13, 5-[2-(4-Cyano-phenyl)-2H-pyrazol-3-yl]-4-methyl-2-oxo-3-(3-trifluoromethyl-phenyl)-2,3-dihydro-imidazole-1-carboxylic acid [(S)-1-(1-methyl-piperidin-4-ylcarbamoyl)-ethyl]-amide] belongs less than 1 nM; to `Cc1c(-c2ccnn2-c2ccc(C#N)cc2)n(C(=O)N[C@@H](C)c2ccc(CN(C)C)cc2)c(=O)n1-c1cccc(C(F)(F)F)c1` [Example 14, 5-[2-(4-Cyano-phenyl)-2H-pyrazol-3-yl]-4-methyl-2-oxo-3-(3-trifluoromethyl-phenyl)-2,3-dihydro-imidazole-1-carboxylic acid [(S)-1-(4-dimethylaminomethyl-phenyl)-ethyl]-amide], less than 1 nM.
For the compound `Cc1c(-c2ccnn2-c2ccc(C#N)cc2)n(C(=O)NC2CCN(C(=O)CCN(C)C)CC2)c(=O)n1-c1cccc(C(F)(F)F)c1` [Example 15, 5-[2-(4-Cyano-phenyl)-2H-pyrazol-3-yl]-4-methyl-2-oxo-3-(3-trifluoromethyl-phenyl)-2,3-dihydro-imidazole-1-carboxylic acid [1-(3-dimethylamino-propionyl)-piperidin-4-yl]-amide], the IC50 is less than 1 nM.
To `Cc1c(-c2ccnn2-c2ccc(C#N)cc2)n(C(=O)N[C@@H](C)c2ncc(CN(C)C)o2)c(=O)n1-c1cccc(C(F)(F)F)c1` [Example 16, 5-[2-(4-Cyano-phenyl)-2H-pyrazol-3-yl]-4-methyl-2-oxo-3-(3-trifluoromethyl-phenyl)-2,3-dihydro-imidazole-1-carboxylic acid [(S)-1-(5-dimethylaminomethyl-oxazol-2-yl)-ethyl]-amide] belongs less than 1 nM.
Consider `Cc1c(-c2ccnn2-c2ccc(C#N)cc2)n(C(=O)NC2CCN(C(=O)CN(C)C)CC2)c(=O)n1-c1cccc(C(F)(F)F)c1` [Example 17, 5-[2-(4-Cyano-phenyl)-2H-pyrazol-3-yl]-4-methyl-2-oxo-3-(3-trifluoromethyl-phenyl)-2,3-dihydro-imidazole-1-carboxylic acid [1-(2-dimethylamino-acetyl)-piperidin-4-yl]-amide], for which the IC50 is less than 1 nM.
To `Cc1c(-c2ccnn2-c2ccc(C#N)cc2)n(C(=O)N[C@@H](C)C(=O)N(C)CC2CCN(C)CC2)c(=O)n1-c1cccc(C(F)(F)F)c1` [Example 18, 5-[2-(4-Cyano-phenyl)-2H-pyrazol-3-yl]-4-methyl-2-oxo-3-(3-trifluoromethyl-phenyl)-2,3-dihydro-imidazole-1-carboxylic acid {(S)-1-[methyl-(1-methyl-piperidin-4-ylmethyl)-carbamoyl]-ethyl}-amide] belongs less than 1 nM.
